From patent US6093720A, “Trans apovincaminic acid ester derivatives” (Richter Gedeon Vegyeszeti GmbH, priority 1995, dated 2000)
Where “and” joins values, the source holds several entries; their conditions need not be identical. Identical values can stand only once. Entries after “also recorded” stand apart in the source; their conditions may differ. Counter-ions that a name gives are not always drawn.

Tests used:
[1] = test system: NADPH-Induced Lipid Peroxidation in Brain Microsomes; assay: NADPH-induced (enzymatic) lipid peroxidation in brain microsomes (AEI); type: biochemical, rat (male Hannover-Wistar); conditions: for IC50: NADPH-induced lipid peroxidation, rat brain microsomes, 37° C., 20 minutes, pH 6.8; for inhibition of NADPH-induced lipid peroxidation relative to silymarin (times as strongly): compared with silymarin
Experimental: Effect on the NADPH-Induced Lipid Peroxidation in Brain Microsomes
Male Hannover-Wistar rats with a body weight of 150-250 g were used for the preparation of microsomes. After decapitation, the whole brain was removed and homogenized in a 10-fold volume of ice-cold 0.25 M saccharose solution. The homogenate was centrifuged in a Hitachi CR 26H equipment at 15000 g at 4° C. for 10 minutes, then the supernatant was collected and centrifuged in a Hitachi SCP 85H apparatus at 78000 g at 4° C. for 60 minutes. After suspending the precipitate in 0.15 M KCl solution, the protein content of the obtained solution was determined and then adjusted to 10 mg/ml concentration. The microsome thus obtained was frozen in a dry ice-acetone mixture and stored at -70° C. until use. The components of the incubation mixture were: 50 mM TRIS-HCl (pH 6.8), 0.2 mM FeCl3, 1 mM KH2 PO4, 0.5 mM ADP, 0.2 mg of microsomes as well as the compound to be tested. The incubation was carried out with a final volume of 1 ml and with an incubation time of 20 minutes at a temperature of 37° C. The lipid peroxidation was induced by adding 0.4 mM NADPH.
The formation of malondialdehyde was determined by using thiobarbituric acid. After stopping the reaction, 1 ml of 1% thiobarbituric acid solution each was weighed to the samples, which were then placed in a water bath of about 100° C. for 10 minutes. Subsequently, the samples were centrifuged at 2000 g in a Janetzki K70 apparatus at 4° C. for 10 minutes. The absorbance values of the colored supernatant were measured at 535 nm in a Hitachi 150-20 spectrophotometer. Malondialdehyde bis(diethylacetal) was used as reference compound.

[2] = Antiischemic effect on bilateral (carotid) artery ligation model, mortality; type: in vivo, mice; conditions: for mortality at 2 mg/kg: 24 h, 30 minutes before 5-minute bilateral carotid ligation, control mortality 70%
Experimental: 1. Antiischemic Effect (On Bilateral Artery Ligation Model)
N. Himori et al.: Cerebral ischemia model with conscious mice involvement of NMDA receptor activation and derangement of learning and memory ability [J. Pharmacol. Meth. 23, 311-327 (1990)].
Carotid arteries of mice (weighing 30 to 32 g each) were exposed bilaterally under anaesthesia by 450 mg/kg of intraperitoneal (i.p.) chloral hydrate. The sympathetic and vagal nerves were separated and a loose ligation was bilaterally placed below the carotid arteries. Both ends of the ligation were led out on the back, behind the ears. Next day, in conscious state both ends of the ligation were pulled resulting in the stopping of blood supply through the carotid arteries. This was maintained for 5 minutes, then released to provide the reperfusion. The number of animals died during the 5-minute period and the following 24 hours were registered. The calculation of significance was performed by the chi^2 test. The pre-treatment with the compound was carried out intraperitoneally (i.p.) 30 minutes before the ligation.
The transient dramatic decrease in the cerebral blood supply, then the starting of reperfusion after stopping the ligation leads to the formation of extremely toxic oxygen free radicals (superoxide radical, hydrogen peroxide). […] [ED50 is the dose (as mg/kg) diminishing the mortality by 50% in comparison to the untreated is control group].

[3] = test system: Fe^2+ -Induced Lipid Peroxidation in Brain Homogenate; assay: Fe^2+-induced (non-enzymatic) lipid peroxidation in brain homogenate (ANI); type: biochemical, rat (Hannover-Wistar); conditions: for IC50: Fe^2+-induced lipid peroxidation, rat brain homogenate, 37° C., 20 minutes, pH 7.4; for antioxidant activity in Fe^2+-induced lipid peroxidation, in words: comparison with idebenone, DL-α-tocopherol or silymarin
Experimental: Effect on the Fe^2+ -Induced Lipid Peroxidation in Brain Homogenate
After decapitating Hannover-Wistar rats weighing 150-220 g each, the whole brain was homogenized in 9 volumes of ice-cold Krebs-Ringer's buffer containing 15 mM HEPES, (4-(2-hydroxyethyl)-1-piperazinylethanesulfonic acid) (pH 7.4), 140 mM NaCl7 3.6 mM KCl, 1.5 mM CaCl2, 0.7 mM MgCl2, 1.4 mM KH2 PO4 and 10 glucose. Then the protein content of the solution was determined and adjusted to 10 mg/ml concentration.
After adding the inhibitory agent to be tested in a volume of 5 μl to 200 μl of the homogenate, the incubation mixture was incubated at 37° C. for 20 minutes. The Fe^2+ -induced lipid peroxidation was accomplished by adding 5 μl of 8 mM Fe2 (NH4)2 (SO4)2 solution. After passing of the incubation time, the reaction was stopped by adding 1 ml of a stopping solution containing 0.8 M HCl and 12.5% trichloroacetic acid, then the samples were centrifuged at 2000 g in a Janetzki K70 apparatus at 4° C. for 10 minutes.
To a 0.5 ml portion of the supernatant, 1 ml of 1% thiobarbituric acid solution was added, then the samples were placed in a water bath of 100° C. for 20 minutes. The color intensity developed was determined at 535 nm with a Hitachi 150-20 spectrophotometer by using malondialdehyde bis(diethylacetal) as reference compound.
ANI: non-enzymatically (Fe^2+) induced lipid peroxidation test

[4] = Diazepam-induced anterograde amnesia (passive avoidance); type: in vivo, NMRI mice; conditions: for Inhibition of the diazepam-induced amnesia %: 1 hour before learning, diazepam 3 mg/kg i.p.; for antiamnesic activity, in words: diazepam-induced anterograde amnesia, 0.1 and 10 mg/kg p.o.
Source text: 2. Diazepam-Induced Anterograde Amnesia C. L. Broekkamp et al.: The comparative effects of benzodiazepines, progabide and PK 9084 on acquisition of passive avoidance in mice [Psychopharmacology (Berlin) 83, 122-125 (1984)]. The memory test was accomplished on NMRI mice weighing 25 to 28 g each by using the passive avoidance, a method based on the genetically determined nyctophilic behavior of rodents. During the learning period, the pre-selected animals (mice entering the dark space from the illuminated space within 30 seconds) were placed in an illuminated space. After entering the dark space, the animal received an electric shock (1 mA for […]) onto its planta within 30 seconds, then the time until entry to the dark space (latency period) was registered. After 24 hours, the animals were placed again in the illuminated space and the time until crossing over to the dark space (retention time=T with a time limit of 300 seconds) was measured. For inducing an anterograde amnesia, the animals were treated intraperitoneally with 3 mg/kg of diazepam 30 minutes before learning. The compounds were administered orally in 0.1 or 10 mg/kg doses, respectively 1 hour before learning. [formula]

[5] = Antiamnesic activity in rats; type: in vivo
[6] = Protection against ischemia-induced injury of memory; type: in vivo; conditions: oral dose range between 1 and 10 mg/kg
[7] = Antiischemic effect after oral administration; type: in vivo
[8] = Electroshock-induced retrograde amnesia model; type: in vivo; conditions: oral dose range between 0.1 and 10 mg/kg
[9] = "Focal" ischemia models elicited in one well-determined area of the brain; type: in vivo

Structure (SMILES) | IC50 [1] | inhibition of NADPH-induced lipid peroxidation relative to silymarin (times as strongly) [1] | mortality at 2 mg/kg ([2]; Mus musculus, ip, 2 mg/kg i.p.) | IC50 [3] | antioxidant activity in Fe^2+-induced lipid peroxidation, in words [3] | Inhibition of the diazepam-induced amnesia % ([4]; 0.1 mg/kg p.o.) | Inhibition of the diazepam-induced amnesia % ([4]; 10.0 mg/kg p.o.) | antiamnesic activity, in words [4] | antiamnesic activity, in words [5] | protection against ischemia-induced injury of memory, in words [6] | antioxidant effect in NADPH-induced lipid peroxidation, in words ([1]; comparison with reference compounds) | antioxidant activity compared with idebenone or vinpocetine, in words ([1]; summary statement, in vitro and in vivo) | ED50 ([2]; Mus musculus, ip, dose diminishing the mortality by 50% in comparison to the untreated control group) | antiischemic activity, in words ([2]; bilateral artery ligation, mice, 2 mg/kg i.p.) | antiischemic effect, in words [7] | protective action, in words [8] | activity on focal ischemia models, in words [9]
CC[C@]12C=C(C(=O)OCCOC(=O)c3ccccc3)n3c4c(c5ccccc53)CCN(CCC1)[C@H]42 [Compound 1011036, (-)-trans apovincaminic acid 2-(benzoyloxy)ethyl ester(3α,16β)hydrochloride] | 7.7 µM and < 10 µM | about 20 times | 50% | 9.3 µM and < 10 µM | about twice as active as idebenone or DL-α-tocopherol | 23% | 16% |  |  |  |  |  |  |  |  |  | 
CCC(=O)OCCOC(=O)C1=C[C@@]2(CC)CCCN3CCc4c(n1c1ccccc41)[C@@H]32 [Compound 1011038, (+)-trans apovincaminic acid 2-(propionyloxy)ethyl ester(3α,16β)hydrochloride] | 8.4 µM and < 10 µM | about 20 times | 60% | 8.7 µM and < 10 µM | about twice as active as idebenone or DL-α-tocopherol | 64% | 24% | particularly effective |  |  |  |  |  |  |  |  | 
CC[C@@]12C=C(C(=O)OCCOC(C)=O)n3c4c(c5ccccc53)CCN(CCC1)[C@@H]42 [Compound 2705279, (-)-trans apovincaminic acid 2-acetoxyethyl ester(3β,16α)monohydrochloride] | 6.3 µM and < 10 µM |  | 10 to 30% |  | about twice as active as idebenone or DL-α-tocopherol | 79% | 119% | particularly effective; also recorded: significant protective effect in both doses used and an activity by far exceeding that of vinpocetine; also recorded: most active in this field | could well be measured in rats | protected against the ischemia-induced injury of memory | comparable to that of idebenone | surpasses both in vitro and in vivo that of idebenone or vinpocetine | 0.76 mg/kg | most active | can be measured after oral administration, too | dose-dependent protective action | active
